# From patent publication US20260235546A1, “Methods and Systems for Interrogating Electrochemical Sensors” (The Regents of the University of California, priority 2023, published 2026)
# Where “and” joins values, the source holds several entries; their conditions need not be identical. Identical values can stand only once.
# Key:
# [1] = FFT-EIS-interrogated lactate-detecting EAB sensor, real-time plasma lactate in a living rat; format: in vivo, Sprague-Dawley rats; settings: about 1000 mg/kg sodium lactate intravenously
# Description: FFT-EIS can be used to interrogate in vivo EAB sensors to monitor plasma lactate concentrations in a live rat in real time (FIGS. 13A and 13B). Lactate is an important clinical biomarker for sepsis and hypoxia during anesthesia, and lactate levels are useful to monitor sport performances. FFT-EIS is used to characterize the lactate-detecting EAB sensor in undiluted blood held at about 37° C. by stepwise changing the lactate level and measuring the corresponding ket value (FIG. 13A). […] Lactate concentrations can be determined in real time in a living rat by measuring changes in ket when employing the lactate detecting EAB sensor (FIG. 13B). Stable concentrations were measured prior to intravenously infusing about 1000 mg/kg sodium lactate.
# The lactate aptamer is modified with a six-carbon thiol and the redox reporter methylene blue. The aptamer was reduced for 1 h in a solution containing about 11.26 μM aptamer and 8.87 mM TCEP and subsequently diluted till 500 nM in a PBS buffer plus 2 mM MgCl2. The intravenous sensors were fed through 20-gauge catheters and used the in vitro sensors as is. To form the lactate-detecting EAB sensor, the aptamer was deposited on the gold electrode by immersing the electrode for 1 h in a 500 nM reduced lactate aptamer solution followed by overnight immersion in 10 mM 6-mercaptohexanol to form a self-assembled monolayer. […]
# [2] = FFT-EIS-interrogated EAB sensor in jugular vein, real-time phenylalanine concentration in fasted and non-fasted rats; format: in vivo, Sprague-Dawley rats
# Description: (§1) All in vivo experiments were performed on male Sprague-Dawley rats (4-5 months old). The rats weighed between 350-500 g and were pair-housed in a standard light cycle room (12:12 regular light cycle with lights on at 8 AM). They were allowed ad libitum access to food and water and the Institutional Animal Care and Use Committee (IACUC) of the University of California at Santa Barbara approved the experimental protocol which adhered to the guidelines given by the NIH Guide for Care and Use of Laboratory Animals.
# Prior to the measurement, the rats were anesthetized using 4% isofluorane in a Plexiglas anesthesia chamber. Anesthesia was then maintained via a nose cone for the entire duration of the experiment at a level of 2-3% isofluorane. The neck was shaved and dissected in order to surgically isolate the left and right jugular veins. After isolating the two jugular veins, each one was tied off using sterile 6-0 silk sutures. Prior to the measurement, the wires in the sensor were adjusted such that the counter and working electrode were exposed outside of the 20G catheter into the vein as previously described. A small incision was then made in each vein using spring-loaded microscissors that allowed us to insert the sensor-containing catheter into the right jugular vein and an infusion line into the left jugular vein. Both the sensor and drug infusion catheter were anchored in place using two sterile 6-0 silk sutures. 30 units of heparin were infused through the infusion line immediately after insertion of the sensor and prior to any recordings. To intravenously dose the rats at 30 mg/kg a precalculated volume of 0.05 M vancomycin solution was injected using a syringe pump.
# Specifically, after calibrating a phenylalanine-detecting EAB sensor in vitro, FFT-EIS interrogation was used to measure the molecule's concentration in the jugular veins of anesthetized rats with 1.8 s resolution. Doing so, it was observed baseline phenylalanine concentrations of 41±10 μM (the latter reflects one standard deviation) in a fasted animal and 39±6 μM in a non-fasted animal, values in line with previous reports. Upon two intravenous infusions of additional phenylalanine, rapid rises to peak concentrations of 300-400 μM were observed, followed by rapid decays back to baseline in the fasted animal.
# Reference is made to FIG. 6. Using FFT-EIS to interrogate phenylalanine-detecting EAB sensors this metabolite has been monitored in situ in the jugulars of live rats with 1.8 s resolution. Reference Is made to panel (A). A fasted animal was infused with two sequential doses of phenylalanine. In both cases, the concentration of free phenylalanine in the blood quickly decayed back to the pre-infusion baseline (41±10 μM, 31±9 μM, and 25±10 μM before injection, after the first injection, and after the final injection, respectively). Reference is made to Panel (B). In contrast, the return to the post-infusion baseline was slower in a non-fasted animal, which is consistent with previous reports regarding phenylalanine homeostasis. Here, the raw data (light points) are smoothed using a 13-s rolling average (darker trace). Concentration decay transients were fitted to a two compartment (i.e., biexponential) model (black traces).
# [3] = system: phenylalanine-detecting EAB sensor (methylene-blue-modified aptamer); assay: FFT-EIS binding curve of phenylalanine-detecting EAB sensor in whole, freshly-collected rat's blood at 37° C
# Description: (§2) To functionalize the working electrode the disulfide bond was first reduced in the stock alkanethiol-and-methylene-blue modified aptamer by combining 14 μL of 10 mM tris (2-carboxyethyl) phosphine with 2 μL of 100 μM DNA for 1 h in the dark. The gold electrodes were electrochemically cleaned and roughened with Millipore water and followed by immersion for 1 h in 500 nM reduced DNA in PBS. The electrodes were then transferred to a 10 mM solution of 6-mercapto-1-hexanol in PBS and stored overnight before use.
# All electrochemical measurements were performed using an Autolab PGStat128N. The potentiostat was configured in “high stability mode” with a current range of ±1 μA, which affects the filter characteristics. For FFT-EIS measurements, the multi-sin waveform was generated by a DG812 arbitrary waveform generator (Rigol Technologies) and fed into the potentiostat's external voltage input using a BNC connection. The voltage waveform consisted of a superposition of 18 sine waves at logarithmically spaced frequencies ranging from 1 Hz to 1 kHz. The amplitude and phase of each sinusoidal oscillation were optimized for maximum signal-to-noise as discussed in the supporting information of Example 7, and the summed waveform was scaled to have a peak-to-peak amplitude of 25 mV. The potentiostat's native software (NOVA) was used to set the DC bias—the formal potential of methylene blue, as measured by cyclic voltammetry—on top of the AC perturbation. Voltage and current were recorded at 70 kHz using an SDS1202X-E oscilloscope. […] Data recording and processing were controlled by a custom Python program. Further details on the chosen waveform and artefact correction are described in supporting information of Example 7 (FIG. 7, FIG. 9, FIG. 11).
# Impedance spectra were fitted to the equivalent circuit model using MEISP 3.0 after each experiment was complete. […]
# Reference is made to FIG. 12. […] The endogenous concentration of phenylalanine in the blood (52 μM) was determined e using a fluorescent assay kit. […]
# [4] = FFT-EIS-interrogated EAB sensor in jugular vein, real-time plasma vancomycin after intravenous infusion; format: in vivo, Sprague-Dawley rats; settings: rat jugular vein
# Description: as §1
# Prior to the measurement, the rats were anesthetized using 4% isofluorane in a Plexiglas anesthesia chamber. […]
# Aptamer-modified gold wire working electrodes were bundled with platinum counter and silver-silver chloride reference electrodes in a 20-gauge catheter (FIG. 4, panel A), and surgically inserted the resulting three-electrode sensor into the right jugular vein of an anesthetized rat. Full impedance spectra (containing 18 frequencies between 1 Hz and 1 kHz, FIG. 9) was then measured every 1.8 second for 2.5 hours. […]
# FFT-EIS interrogation of EAB sensors provides a highly-time-resolved window into molecular physiology and pharmacokinetics (FIG. 5, panel A). […] Prior to drug infusion, vancomycin concentrations were measured fluctuating tightly around zero (1.1±1.7 μM). […]
# [5] = biological target: vancomycin-detecting EAB sensor (methylene-blue-modified aptamer); assay: FFT-EIS binding curve (ket vs concentration) of vancomycin-detecting EAB sensor in whole bovine blood at 37° C; settings: ± = estimated 95% confidence intervals, read-out: dissociation constant (KD), Hill-Langmuir isotherm fit of ket
# Description: as §2
# All electrochemical measurements were performed using an Autolab PGStat128N. The potentiostat was configured in “high stability mode” with a current range of ±1 μA, which affects the filter characteristics. […] The potentiostat's native software (NOVA) was used to set the DC bias—the formal potential of methylene blue, as measured by cyclic voltammetry—on top of the AC perturbation. Voltage and current were recorded at 70 kHz using an SDS1202X-E oscilloscope. […]
# Reference is made to FIG. 3. In panel (A) the vancomycin-detecting EAB sensor was immersed in whole bovine blood at 37° C. and challenged with increasing quantities of the target molecule. […]
# The impedimetric properties of EAB sensors, which are sensitive to target concentration, can be rapidly measured using FFT-EIS to enable highly-time resolved molecular measurements. […]
# [6] = fasted animal, first injection, ± = 95% confidence intervals
# [7] = fasted animal, second injection, ± = 95% confidence intervals
structure (smiles),measurement,setting,value
CC(O)C(=O)O (stereo not drawn) [lactate],plasma lactate level course after infusion,[1],gradually returned to the prior baseline
N[C@@H](Cc1ccccc1)C(=O)O [phenylalanine],baseline concentration after the final injection,[2]; fasted animal,25 ± 10 µM
same,baseline concentration after the first injection,[2]; fasted animal,31 ± 9 µM
same,"time constant τ1, biexponential decay",[2]; [6],0.2 ± 0.1 min
same,"time constant τ2, biexponential decay",[2]; [6],3.8 ± 0.2 min
same,"time constant τ1, biexponential decay",[2]; [7],1.7 ± 0.1 min
same,"time constant τ2, biexponential decay",[2]; [7],20 ± 2 min
same,peak concentration after intravenous infusion,"[2]; fasted animal, two intravenous infusions",300 to 400 µM
same,baseline concentration before injection,"[2]; fasted animal, ± = one standard deviation",41 ± 10 µM
same,baseline concentration,[2]; non-fasted animal,39 ± 6 µM
same,"time constant T2, biexponential decay",[2]; non-fasted animal,35 ± 7 min
same,"time constant τ1, biexponential decay",[2]; non-fasted animal,3.3 ± 0.1 min
same,"ket,0 (ket in the absence of phenylalanine)",[3]; fitted,62.9 s⁻¹
same,"ket,max (ket at saturating phenylalanine)",[3]; fitted,225.8 s⁻¹
same,Kd,"[3]; read-out: dissociation constant KD, Langmuir isotherm fit of ket",6.89 mM
CN[C@H](CC(C)C)C(=O)N[C@H]1C(=O)N[C@@H](CC(N)=O)C(=O)N[C@H]2C(=O)N[C@H]3C(=O)N[C@H](C(=O)N[C@H](C(=O)O)c4cc(O)cc(O)c4-c4cc3ccc4O)[C@H](O)c3ccc(c(Cl)c3)Oc3cc2cc(c3O[C@@H]2O[C@H](CO)[C@@H](O)[C@H](O)[C@H]2O[C@H]2C[C@](C)(N)[C@H](O)[C@H](C)O2)Oc2ccc(cc2Cl)[C@H]1O [vancomycin],time constant of monoexponential concentration decay,"[4]; after 30 mg/kg intravenous infusion, three separate animals, ± = 95% confidence intervals",33.1 ± 0.5 min and 37.3 ± 0.7 min and 47.4 ± 1.3 min
same,measured concentration prior to drug infusion,[4]; pre-infusion,1.1 ± 1.7 µM
same,Kd,[5],0.144 ± 0.031 mM
